Experiments:
T-REx™ CHO cells = test: Yield of purified mutant GFP containing unnatural amino acid (pSWAN two-plasmid system); assay type: cell-based, Chinese hamster; conditions: pMpa 10 mM, pApa 10 mM, pBpa 1 mM, pAzpa 5 mM, pPpa 1 mM in media, anti-myc column purified
Excerpt: The pMpaRS gene was inserted directly after the non-regulated CMV promoter for efficient and continuous expression of pMpaRS. Another plasmid (pSWAN-GFP37TAG in FIG. 4B) containing both three tandem repeats of the BstRNACUA^Tyr gene and the GFP37TAG gene was also constructed. The gene encoding GFP37TAG was inserted after a Tet-regulated CMV promoter to minimize potential read-through of the nonsense amber codon caused by endogenous amber suppression in mammalian cells. These two plasmids were then assayed for their suppression efficiency. Because both plasmids contain three tandem repeats of the BstRNACUA^Tyr gene, varying the ratio of the two plasmids to increase the suppression level is not expected to change the total amount of the BstRNACUA^Tyr gene transfected into cells. Under optimized transfection conditions (0.5 μg of pSWAN-pMpaRS and 2.5 μg pSWAN-GFP37TAG per 2×10^6 cells), the suppression level is roughly two-fold higher than that using the three plasmids pUC18-3BstRNACUA^Tyr, pcDNA4-pMpaRS, and pcDNA4-GFP37TAG (the suppression level was determined by the number of fluorescent cells). Cells were grown for 1-2 days after induction and kept viable before harvesting. The yield of mutant GFP containing pMpa (GFP-pMpa) was also quantified. In the presence of 10 mM pMpa in the growth media, 1 μg of mutant GFP can be obtained from 2×10^7 adhesive T-REx™ CHO cells.
Transient transfection of T-REx™ CHO and 293 cells with the pSWAN-EcTyrRS variants and pSWAN-GFP37TAG (0.5 μg of pSWAN-EcTyrRS variant and 2.5 μg of pSWAN-GFP37TAG per 2×10^6 cells) all afforded roughly two-fold higher suppression levels than for the three plasmids pUC18-3BstRNACUA^Tyr, pcDNA4-EcTyrRS variant, and pcDNA4-GFP37TAG (with the exception of the pIpa specific variant). Mutant GFPs containing pApa, pBpa, pAzpa or pPpa were also expressed in T-REx™ CHO cells transfected with the pSWAN-EcTyrRS variants and pSWAN-GFP37TAG and grown in media containing the corresponding unnatural amino acid (pApa, 10 mM; pBpa, 1 mM; pAzpa, 5 mM; or pPpa, 1 mM) for 1-2 days, and purified using an anti-myc antibody column. The yields of the mutant proteins containing pApa and pAzpa were close to that for pMpa (˜1 μg per 2×10^7 cells), and the yields of mutant proteins containing pBpa and pPpa were somewhat lower (˜0.7 μg per 2×10^7 cells). Because the expression levels of EcTyrRS variants in T-REx™ CHO cells are similar, the lower yield of the mutant proteins containing pBpa and pPpa may be due to the low concentrations of unnatural amino acids in the media.
pSWAN-EcTyrRS variants and pSWAN-GFP37TAG were used to express mutant GFPs containing unnatural amino acids. T-REx™ CHO cells (Invitrogen™) were grown in 75 cm^2 tissue culture flasks (BD Biosciences) to 80-90% confluency and transfected with 2 μg of pSWAN-EcTyrRS and 10 μg pSWAN-GFP37TAG using […] FuGENE® 6. After overnight incubation, the media were changed to the fresh media containing the unnatural amino acid (pMpa, 10 mM; pApa, 10 mM; pBpa, 1 mM; pAzpa, 5 mM; and pPpa, 1 mM) and 1 μg/ml tetracycline. Cells were then grown for 1-2 days at 37° C. before harvesting, and then lysed with RIPA lysis buffer. The supernatant from the cell lysate was dialyzed against and equilibrated with PBS buffer before loading onto an anti-myc antibody agarose column (Sigma). The column was washed with 15 column volumes of PBS buffer and then eluted with 0.1 M ammonium hydroxide. The purified proteins were neutralized with 0.1 M acetic acid and analyzed by SDS-PAGE. […]

position 37 of GFP = test: Fidelity of unnatural amino acid incorporation by mass spectrometry (nano-RP LC/MS/MS, ESI TOF-MS); conditions: nano-RP LC/MS/MS of tryptic fragments, mutant GFP from T-REx CHO cells
Excerpt: To further characterize GFP-pMpa, the mutant protein was expressed in T-REx™ CHO cells transiently transfected with both pSWAN-pMpaRS and pSWAN-GFP37TAG. The protein was purified using an anti-myc antibody agarose column and then separated by SDS-PAGE. The GFP-pMpa band from the SDS-PAGE gel was digested with trypsin and analyzed by nanoscale reversed-phase liquid chromatography/mass spectrometry/mass spectrometry (nano-RP LC/MS/MS). In parallel, wild type GFP was purified from cells transfected with pcDNA4-GFP and subjected to the same analysis.
Proteolysis of affinity purified proteins (performed for wild-type and pBpa samples) was carried out by overnight incubation of proteins at 37° C. with sequencing-grade modified trypsin (Promega) using a substrate/enzyme ratio of 10:1 (wt/wt) based on the estimated protein concentration in 100 mM triethylammonium bicarbonate buffer (pH 8.5). In-gel digestions (performed for pMpa, pAzpa, pApa, and pPpa samples) were performed according to a modified EMBL procedure (see the website for EMBL, Heidelberg, Germany, Bioanalytical Research Group). Briefly, gel slices were excised to approximately 1 mm×1 mm cubes, washed for 5 minutes with water, 15 minutes with acetonitrile, and dried in a vacuum centrifuge before being rehydrated at 0° C. for 30 minutes with 12.5 ng/μl of sequencing-grade modified trypsin in 50 mM triethylammonium bicarbonate buffer (pH 8.5). Excess buffer was removed and 20 μl of 50 mM triethylammonium bicarbonate buffer (pH 8.5) was added to the gel slices before incubating at 37° C. overnight. Peptides were extracted from the gel slices as described in the protocol.
(§1) Nano-RP LC/MS/MS was performed with an HPLC pump, autosampler (Agilent Technologies, Palo Alto, Calif.), and an LTQ Orbitrap hybrid mass spectrometer (ThermoElectron, San Jose, Calif.). Tryptic digests were loaded with a pressure bomb onto a 75 μm i.d. precolumn packed with 4 cm of 5-μm Monitor C18 particles (Column Engineering, Ontario, Calif.) at a flow rate of approximately 2 μl/min. The precolumn was then connected to the HPLC pump and after several minutes of washing with solvent A the analytical column with integrated emitter tip (360 μm O.D.×75 μm i.d; 10 cm of 5 μM C18, ˜5-μm tip) was connected in series. The chromatographic profile was from 100% solvent A (0.1% aqueous acetic acid) to 50% solvent B (0.1% acetic acid in acetonitrile) in 40 min; the flow rate through the analytical column was ca. 100 nl/min.
For data-dependent experiments, the mass spectrometer was programmed to first record a high-resolution Orbitrap scan then a full-scan ion trap spectrum (m/z 500-2,000). This was followed by 10 data-dependent MS/MS scans (relative collision energy=35%; 3-Da isolation window) triggered of the ion-trap scan and finally two targeted MS/MS scans. The first targeted MS/MS scan was set to isolate and fragment the doubly charged precursor ion of the predicted unnatural amino acid modified peptide
at m/z 752.3. The raw data were searched against the MSDB database using MASCOT (Matrixscience, London, UK) for protein identification and to find the scans containing the target peptides with the unnatural amino acids as variable modification. To estimate fidelity at Y*37 of GFP-pMpa, single ion chromatograms (doubly charged precursor ions at m/z 752.3 for the wt and 759.3 for pMpa) and selected ion chromatograms (y9, y11, and y12) were integrated using the Xcalibur software package (ThermoElectron, San Jose, Calif.).
Intact protein mass spectra were acquired on an automated LC/MS system (Waters, Milford, Mass.) consisting of a capillary LC with auto-sampler and a QTOF2 mass spectrometer. GFP-pMpa (0.1 mg/ml) was loaded onto a reversed-phase protein Captrap (Michrom Bioresources, Auburn, Calif.) for desalting with 0.1% acetic acid in water and eluted with 80% acetonitrile/0.1% acetic acid at 5 μl/min into the ESI source of the mass spectrometer. […]

[1] = Decay of azido amino acid seen in tandem MS of mutant GFP; assay type: physicochemical; conditions: mutant GFP containing pAzpa; azido group chemically reactive and photo-unstable
Experimental: The mutant GFP containing pAzpa was only weakly detectable. […] The data from all five mutant proteins indicate the high selectivity and fidelity of the incorporation of unnatural amino acids.
as §1

mammalian cells = test: Cellular toxicity of heterologous synthetase expression; assay type: cell-based; conditions: under the growth conditions used

Row | decay of the amino acid in mutant GFP (tandem MS) [1] | Molecule | yield of mutant GFP containing the unnatural amino acid (T-REx™ CHO cells) [μg per 2×10^7 cells] | wild type peptide signals in tandem MS of mutant GFP sample (position 37 of GFP) | cellular toxicity of heterologous expression (mammalian cells)
1 | Most of pAzpa decays to pAmpa | [N-]=[N+]=Nc1ccc(C[C@H](N)C(=O)O)cc1 [pAzpa, p-azidophenylalanine] | ~1 | No wild type signals could be detected | 
2 |  | pMpaRS: EcTyrRS variant Y37V/D182S/F183M that charges BstRNACUA^Tyr with pMpa (protein, UniProt P0AGJ9 2-424, looked up, variant Y37V D182S F183M) Tyrosine--tRNA ligase: ASSNLIKQLQERGLVAQVTDEEALAERLAQGPIALVCGFDPTADSLHLGHLVPLLCLKRFQQAGHKPVALVGGATGLIGDPSFKAAERKLNTEETVQEWVDKIRKQVAPFLDFDCGENSAIAANNYDWFGNMNVLTFLRDIGKHFSVNQMINKEAVKQRLNREDQGISFTEFSYNLLQGYSMACLNKQYGVVLQIGGSDQWGNITSGIDLTRRLHQNQVFGLTVPLITKADGTKFGKTEGGAVWLDPKKTSPYKFYQFWINTADADVYRFLKFFTFMSIEEINALEEEDKNSGKAPRAQYVLAEQVTRLVHGEEGLQAAKRITECLFSGSLSALSEADFEQLAQDGVPMVEMEKGADLMQALVDSELQPSRGQARKTIASNAITINGEKQSDPEYFFKEEDRLFGRFTLLRRGKKNYCLICWK |  |  | did not show any apparent cellular toxicity
